Source: US8314098B2, “Pyrazolo-pyrimidine compounds” (Ajinomoto Co., Inc., priority 2008, dated 2012)

What was measured:
Format in all cases: cell-based
[1] = test system: IL-12p70 (the complex of IL-12p35 and p40); test: IL-12p70 production inhibition in macrophages derived from mouse abdomen (IFN-γ/SAC stimulation, ELISA); details: Macrophage; mouse (Balb/c) abdominal macrophages, 100 ng/mL mouse IFN-γ + 0.05% SAC, overnight; TFA salts tested where prepared as such; read-out: IL-12p70-Inhibitory Activity IC50
Outline: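 Thioglycolate-elicited adherent peritoneal macrophages from female Balb/c mice were collected 5–6 days after dosing. Cells were stimulated overnight with 100 ng/mL mouse IFN-γ plus 0.05% (v/v) killed S. aureus Cowan I, with compound present. IL-12p70, IL-12p40 and TNF-α in supernatants were measured by ELISA and IC50s derived, with cell survival also checked.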

[2] = test system: IL-12p70 (the complex of IL-12p35 and p40); test: IL-12p70 production inhibition in whole blood of mouse (IFN-γ/SAC stimulation, ELISA); details: mouse (Balb/c) whole blood, EDTA, 100 ng/mL mouse IFN-γ + 1.25% SAC, overnight; TFA salts tested where prepared as such
Experimental: The blood was recovered from the mice (female Balb/c mice) (containing added EDTA) and it was used for the evaluation. To a cell culture medium, there were added 100 ng/mL of mouse interferon-γ, 1.25% (v/v) of a liquid containing killed cells derived from Staphylococcus aureus Cowan I strain (SAC) and a candidate compound, the resulting mixture was diluted to a volume equivalent to the blood and then the diluted medium was cultivated overnight. After the completion of the cultivation, the amount of IL-12p70 (the complex of IL-12p35 and p40) was quantitatively determined according to the ELISA assays while making use of the recovered supernatant of the culture medium and the 50% production-inhibitory concentrations (IC50) were calculated for Compounds 38, 80, 82, 83, 84, 85, 87, 90 and 91. (see Table 3).

TNF-α = TNF-α production inhibition in macrophages derived from mouse abdomen (IFN-γ/SAC stimulation, ELISA); details: Macrophage; mouse (Balb/c) abdominal macrophages, 100 ng/mL mouse IFN-γ + 0.05% SAC, overnight; TFA salts tested where prepared as such; read-out: TNF-α-Inhibitory Activity IC50
Experimental: One milliliter each of a 3% (w/v) thioglycolate solution was intraperitoneally administered to mice (female Balb/c mice), the abdominal cells of each mouse were recovered after 5 or 6 days from the administration of the thioglycolate solution and the adhesive cells were collected and used in the exaluation procedures. To a culture medium containing such adhesive cells, there were added 100 ng/mL of mouse interferon-γ and a 0.05% (v/v) liquid containing killed cells derived from Staphylococcus aureus Cowan I strain (SAC) and a candidate compound and then the mixture was cultivated overnight. After the completion of the cultivation, the survival ratios were determined, there were quantitatively determined the quantities of IL-12p70 (the complex of IL-12p35 and p40) and IL-12p40 or TNF-α according to the ELISA assays while making use of the recovered supernatant of the culture medium and the 50% production-inhibitory concentration (IC50) was calculated for each case (see Table 1 and Tables 1-9 for IL-12p70 and TNF-α and Tables 1 to 10 for IL-12p40).

| SMILES | IC50 [1] [nM] | IC50 [2] [nM] | IC50 (TNF-α) [nM] |
| --- | --- | --- | --- |
| CCc1cccc(/C=N/Nc2cc(N3CCOCC3)n3nc(-c4ccncc4)cc3n2)c1 [Compound 118, N-(3-ethyl-benzylidene)-N-(7-morpholin-4-yl-2-pyridin-4-yl-pyrazolo[1,5-a]pyrimidin-5-yl)-hydrazine] | 29 | 640 | – |
| Cc1cccc(/C=N/Nc2cc(N3CCOCC3)n3nc(-c4ccnnc4)cc3n2)c1 [Compound 94, N-(3-methyl-benzylidene)-N-(7-morpholin-4-yl-2-pyridazin-4-yl-pyrazolo[1,5-a]pyrimidin-5-yl)-hydrazine] | 18 | 1000 | – |
| C(=N\Nc1cc(N2CCOCC2)n2nc(N3CCOCC3)cc2n1)/c1c[nH]c2ccccc12 [Compound 128, N-(1H-indol-3-yl-methylidene)-N-(2,7-di-morpholin-4-yl-pyrazolo[1,5-a]pyrimidin-5-yl)-hydrazine] | 140 | 4600 | – |
| C(=N\Nc1cc(N2CCOCC2)n2nc(-c3ccncc3)cc2n1)/c1coc2ccccc12 [Compound 95] | 28 | 810 | – |
| C(=N\Nc1cc(N2CCOCC2)n2nc(-c3ccncc3)cc2n1)/c1ccnc2ccccc12 [Compound 122, N-(7-morpholin-4-yl-2-pyridin-4-yl-pyrazolo[1,5-a]-pyrimidin-5-yl)-N′-quinolin-4-yl-methylidene-hydrazine] | 5.6 | 2400 | – |
| C(=N\Nc1cc(N2CCOCC2)n2nc(-c3ccncc3)cc2n1)/c1cc2ccccc2s1 [Compound 108, N-benzo[b]thiophen-2-yl-methylidene-N′-(7-morpholin-4-yl-2-pyridin-4-yl-pyrazolo[1,5-a]pyrimidin-5-yl)-hydrazine] | 110 | 3700 | – |
| CCc1cccc(/C=N/Nc2cc(N3CCOCC3)n3nc(-c4cnccn4)cc3n2)c1 [Compound 116, N-(3-ethyl-benzylidene)-N-(7-morpholin-4-yl-2-pyrazin-2-yl-pyrazolo[1,5-a]pyrimidin-5-yl)-hydrazine] | 49 | 3800 | – |
| CCN(CC)c1ccc(-c2cc3nc(N/N=C/c4cccc(C)c4)cc(N4CCOCC4)n3n2)cc1 [Compound 23, N-{2-(4-diethyl-amino-phenyl)-7-morpholin-4-yl-pyrazolo-[1,5-a]pyrimidin-5-yl}-N′-(3-methyl-benzylidene)-hydrazine] | 14 | – | > 10000 |
| Cc1cccc(/C=N/Nc2cc(N3CCOCC3)n3nc(-c4cccs4)cc3n2)c1 [Compound 18, N-(3-methyl-benzylidene)-N′-(7-morpholin-4-yl-2-thiophen-2-yl-pyrazolo[1,5-a]pyrimidin-5-yl)-hydrazine] | 11 | – | > 10000 |
| CCOC(=O)c1cc2nc(N/N=C/c3cccc(C)c3)cc(N3CCOCC3)n2n1 [Compound 81, N-(2-ethoxycarbonyl-7-morpholin-4-yl-pyrazolo[1,5-a]-pyrimidin-5-yl)-N′-(3-methyl-benzylidene)-hydrazine] | 55 | – | > 10000 |
| C(=N\Nc1cc(N2CCOCC2)n2nc(-c3ccccc3)cc2n1)/c1cccnc1 [Compound 8, N-(7-morpholin-4-yl-2-phenyl-pyrazolo[1,5-a]pyrimidin-5-yl)-N′-pyridin-3-yl-methylidene-hydrazine] | 407 | – | > 10000 |
| COc1cccc(/C=N/Nc2cc(N3CCOCC3)n3nc(-c4ccccc4)cc3n2)c1 [Compound 29, N-(3-methoxy-benzylidene)-N′-(7-morpholin-4-yl-2-phenyl-pyrazolo[1,5-a]pyrimidin-5-yl)-hydrazine] | 40 | – | > 10000 |
| Cc1ccc(-c2cc3nc(N/N=C/c4cccc(C)c4)cc(N4CCOCC4)n3n2)cc1 [Compound 3, N-(3-methyl-benzylidene)-N′-{2-(4-methylphenyl)-7-morpholin-4-yl-pyrazolo[1,5-a]pyrimidin-5-yl}-hydrazine] | 35 | – | > 10000 |
| Cc1ccc(-c2nn3c(N4CCOCC4)cc(N/N=C/c4cccc(C)c4)nc3c2Br)cc1 [Compound 5, N-{3-bromo-2-(4-methylphenyl)-7-morpholin-4-yl-pyrazolo-[1,5-a]pyrimidin-5-yl}-N′-(3-methyl-benzylidene)-hydrazine] | 124 | – | > 10000 |
| Nc1cccc(/C=N/Nc2cc(N3CCOCC3)n3nc(-c4ccccc4)cc3n2)c1 [Compound 140, N-(3-amino-benzylidene)-N-(7-morpholin-4-yl-2-phenyl-pyrazolo[1,5-a]pyrimidin-5-yl)-hydrazine] | 170 | – | > 10000 |
| Cc1cccc(/C=N/Nc2cc(N3CCOCC3)n3ncc(Br)c3n2)c1 [Compound 11, N-(3-bromo-7-morpholin-4-yl-pyrazolo[1,5-a]pyrimidin-5-yl)-N′-(3-methyl-benzylidene)-hydrazine] | 340 | – | > 10000 |
| C(=N\Nc1cc(N2CCOCC2)n2ncc(-c3ccccn3)c2n1)/c1c[nH]c2ccccc12 [Compound 88, N-(1H-indol-3-yl-methylidene)-N′-(7-morpholin-4-yl-3-pyridin-2-yl-pyrazolo[1,5-a]pyrimidin-5-yl)-hydrazine] | 420 | – | > 10000 |
| Cc1cccc(/C=N/Nc2cc(N3CCOCC3)n3nc(-c4ccc(N5CCN(C(=O)OC(C)(C)C)CC5)cc4)cc3n2)c1 [Compound 19, N-[2-{4-(4-t-butoxycarbonyl-piperazin-1-yl)-phenyl}-7-morpholin-4-yl-pyrazolo[1,5-a]pyrimidin-5-yl]-N′-(3-methyl-benzylidene)-hydrazine] | 60 | – | > 10000 |
| COCCNc1ccc(-c2cc3nc(N/N=C/c4cccc(C)c4)cc(N4CCOCC4)n3n2)cc1 [Compound 24, N-[2-{4-(2-methoxy-ethyl-amino)-phenyl}-7-morpholin-4-yl-pyrazolo[1,5-a]pyrimidin-5-yl]-N′-(3-methyl-benzylidene)-hydrazine] | 6 | – | > 10000 |
| C(=N\Nc1cc(N2CCOCC2)n2nc(-c3ccccc3)cc2n1)/c1c[nH]c2ccccc12 [Compound 2, N-(1H-indol-3-yl-methylidene)-N′-(7-morpholin-4-yl-2-phenyl-pyrazolo[1,5-a]pyrimidin-5-yl)-hydrazine] | 33 | – | > 10000 |
| C(=N\Nc1cc(N2CCOCC2)n2nc(-c3ccccc3)cc2n1)/c1ccccc1 [Compound 7, N-benzylidene-N′-(7-morpholin-4-yl-2-phenyl-pyrazolo-[1,5-a]pyrimidin-5-yl)-hydrazine] | 113 | – | > 10000 |
| Cc1ccc(-c2cc3nc(N/N=C/c4c[nH]c5ccccc45)cc(N4CCOCC4)n3n2)cc1 [Compound 4, N-(1H-indol-3-yl-methylidene)-N′-{2-(4-methylphenyl)-7-morpholin-4-yl-pyrazolo[1,5-a]pyrimidin-5-yl}-hydrazine] | 23 | – | > 10000 |
| Cc1cccc(/C=N/Nc2cc(N3CCOCC3)n3nc(-c4ccc(Cl)cc4)cc3n2)c1 [Compound 13, N-{2-(4-chlorophenyl)-7-morpholin-4-yl-pyrazolo[1,5-a]-pyrimidin-5-yl}-N′-(3-methyl-benzylidene)-hydrazine] | 34 | – | > 10000 |
| Cc1cccc(/C=N/Nc2cc(N3CCOCC3)n3nc(C)cc3n2)c1 [Compound 79, N-(3-methyl-benzylidene)-N′-(2-methyl-7-morpholin-4-yl-pyrazolo[1,5-a]pyrimidin-5-yl)-hydrazine] | 220 | – | > 10000 |
| CCCCC(=O)N1CCN(c2ccc(-c3cc4nc(N/N=C/c5cccc(C)c5)cc(N5CCOCC5)n4n3)cc2)CC1 [Compound 31, N-(3-methyl-benzylidene)-N′-{7-morpholin-4-yl-2-[4-(1-oxo-pentan-1-yl)piperazin-1-yl-phenyl]-pyrazolo[1,5-a]pyrimidin-5-yl}-hydrazine] | 18 | – | > 10000 |
| Cc1cccc(/C=N/Nc2cc(N3CCOCC3)n3ncc(-c4ccccn4)c3n2)c1 [Compound 87, N-(3-methyl-benzylidene)-N′-(7-morpholin-4-yl-3-pyridin-2-yl-pyrazolo[1,5-a]pyrimidin-5-yl)-hydrazine] | – | 2400 | – |
| Cc1cccc(/C=N/Nc2cc(N3CCOCC3)n3nc(-c4ccc(NN5CCOCC5)cc4)cc3n2)c1 [Compound 68] | 8.7 | – | > 10000 |
